Consider 9 compounds from patent publication US20130310374A1, “Substituted Imidazoquinoline Derivatives” (PIRAMAL ENTERPRISES LIMITED`, priority 2010, published 2013).

The subject of assay [1] is LN229. Nature of the assay: Cytotoxicity propidium iodide assay, LN229. Format: cell-based. To be noted: LN229 (glioblastoma), 48 hours treatment; read-out: IC50 Values in μM, C5a. The protocol: (§1) The assay was designed as in the reference, Anticancer Drugs, 2002, 13, 1-8, the disclosure of which is incorporated herein by reference for the teaching of the assay.
(§2) Cells from cell lines (ATCC) as mentioned in the table given below were seeded at a density of 3000 cells/well in a white opaque 96-well plate. Following incubation at 37° C./5% CO2 for a period of 18-24 hours, the cells were treated with various concentrations (stock solution was prepared in DMSO and subsequent dilutions were made in media as per ATCC guidelines) of the compounds of the present invention for a period of 48 hours. At the end of treatment, the culture medium was discarded, the cells were washed with 1×PBS and 200 μL of […] propidium iodide was added to each well. The plates were frozen at 70° C. overnight. For analysis, the plates were warmed to RT, allowed to thaw and were read in PoleStar fluorimeter with the fluorescence setting. The percentage of viable cells in the non-treated set of wells was considered to be 100 and the percentage viability following treatment was calculated accordingly. IC50 values were calculated from graphs plotted using these percentages. IC50 values for certain compounds of present invention are depicted in Table 1 and % Inhibition of certain compounds of present invention are depicted in Table 2.

Assay [2] has as its system KU812/SR. Put plainly: Cytotoxicity propidium iodide assay, KU812/SR. Particulars: KU812/SR (CML), 48 hours treatment; read-out: IC50 Values in μM, C6c. Format: cell-based. The protocol: as §1, §2
The subject of assay [3] is KCL22/SR. Nature of the assay: Cytotoxicity propidium iodide assay, KCL22/SR. Format: cell-based. To be noted: KCL22/SR (CML), 48 hours treatment; read-out: IC50 Values in μM, C6e. The protocol: as §1, §2
The test system of assay [4] is K562. Put plainly: Cytotoxicity propidium iodide assay, K562. Particulars: K562 (CML), 48 hours treatment, read-out: IC50 Values in μM, C6a. Format: cell-based. The protocol: as §1, §2
In assay [5] the test system is LN18. Put plainly: Cytotoxicity propidium iodide assay, LN18. It counts as cell-based. To be noted: LN18 (glioblastoma), 48 hours treatment; read-out: IC50 Values in μM, C5b. The protocol:
as §1, §2

For assay [6], the system named is PI3K/mTOR pathway. Put plainly: Western blot analysis in A2780 ovarian cancer cell line. Format: cell-based. To be noted: A2780 cells treated for 1 hour; FIG. 1A-1E. The protocol: Protocol for Western Blot Analysis
A2780 ovarian cancer cell line (ATCC) were grown to approximately 70% confluence in 100-mm tissue culture dishes and then treated for 1 hour with […] compounds of Example 2, 3, 5, 16, 19, 55 and 59. Total protein was extracted using cell lysis buffer (NaCl […], NP40 0.67%, Tris-Cl, pH 7.5, 67 mM) containing protease inhibitors and phosphatase inhibitors (Beta-glycerol phosphate 40 mM, DTT 1 mM, NaF 0.4 mM, Sodium-Orthovanadate 0.4 mM) at 4° C. for 1 hour. Cell lysates were then centrifuged at 2×10^4 g for 10 minutes at 4° C., and the protein concentration of the supernatant was quantified using the Bradford's method (BioRad, USA). For SDS-PAGE, 50 μg protein was loaded in SDS-PAGE, transferred to a polyvinylidene difluoride membrane (Bio-Rad, USA) and blocked with 5 mL buffer [5% skim milk and 0.1% Tween] for 1 hour 30 minutes. Membrane were probed with primary antibody (all primary antibodies were from cell signaling with 1:1000 in TBST solution) of respective protein at 4° C. overnight. Peroxidase-labeled anti-rabbit or anti-mouse antibodies (Santacruze, USA) were used as the secondary antibody. Actin and respective whole protein levels were used as the control for protein loading. Protein antigens were detected using Chemiluminescent Substrate (Thermo scientific, USA) and exposed on Kodak station.
On the technique in general: In western blotting, separated proteins are transferred to a membrane and probed.

For assay [7], the system named is A2780. Nature of the assay: Cytotoxicity propidium iodide assay, A2780. It counts as cell-based. To be noted: Homo sapiens; for IC50: A2780 (ovarian), 48 hours treatment, read-out: IC50 Values in μM, C1a. The protocol: as §1, §2
Assay [8] concerns PC3. Nature of the assay: Cytotoxicity propidium iodide assay, PC3. It counts as cell-based, human. Particulars: Homo sapiens, PC-3; for IC50: PC3 (prostate), 48 hours treatment, read-out: IC50 Values in μM, C2a. The protocol: as §1, §2
Assay [9] relates to BxPC3. Put plainly: Cytotoxicity propidium iodide assay, BxPC3. Format: cell-based. Particulars: Homo sapiens, BXPC-3; BxPC3 (pancreatic), 48 hours treatment; read-out: IC50 Values in μM, C4c. The protocol: as §1, §2
Assay [10] deals with MCF7. Nature of the assay: Cytotoxicity propidium iodide assay, MCF7. It counts as cell-based. To be noted: Homo sapiens; MCF7 (breast), 48 hours treatment; read-out: IC50 Values in μM, C3d. The protocol: as §1, §2
The test system of assay [11] is PANC 1. Put plainly: Cytotoxicity propidium iodide assay, PANC 1. Particulars: Homo sapiens; PANC 1 (pancreatic), 48 hours treatment; read-out: IC50 Values in μM, C4a. Format: cell-based. The protocol: as §1, §2
The subject of assay [12] is MDA MB 468. Nature of the assay: Cytotoxicity propidium iodide assay, MDA MB 468. It counts as cell-based. Particulars: Homo sapiens; MDA MB 468 (breast), 48 hours treatment; read-out: IC50 Values in μM, C3b. The protocol:
as §1, §2

For assay [13], the system named is AsPC 1. Put plainly: Cytotoxicity propidium iodide assay, AsPC 1. Format: cell-based. Particulars: Homo sapiens, ASPC1; AsPC 1 (pancreatic), 48 hours treatment; read-out: IC50 Values in μM, C4b. The protocol:
as §1
as §2, with “The plates were frozen at 70° C. overnight.” left out

The subject of assay [14] is MDA MB 231. Nature of the assay: Cytotoxicity propidium iodide assay, MDA MB 231. It counts as cell-based. To be noted: Homo sapiens; MDA MB 231 (breast), 48 hours treatment; read-out: IC50 Values in μM, C3a. The protocol: as §1
as §2, with “The plates were frozen at 70° C. overnight.” left out

For assay [15], the system named is BT 549. Nature of the assay: Cytotoxicity propidium iodide assay, BT 549. To be noted: Homo sapiens; BT 549 (breast), 48 hours treatment; read-out: IC50 Values in μM, C3c. Format: cell-based. The protocol: as §1, §2

Where two headings read alike, the source gives them in different places. Where only a bound is given, the exact number is not on record here.

As for “1-(6-Chloro-2,4′-bipyridin-3-yl)-3-methyl-8-(pyridin-3-yl)-1H-imidazo[4,5-c]quinolin-2(3H)-one [Example 72]”, the 50% inhibitory concentration (IC50) (usually the concentration needed to halve the response being measured) is 0.44 µM in assay [1]; 1.14 µM in [2]; 0.23 µM in assay [3]; 0.0144 µM in [4]; 0.992 µM in assay [5].
Regarding `Cn1c(=O)n(-c2ccc(C(C)(C)C#N)nc2)c2c3cc(-c4ccc5ncccc5c4)ccc3ncc21` [Example 5, 2-Methyl-2-(5-(3-methyl-2-oxo-8-(quinolin-6-yl)-2,3-dihydro-1H-imidazo[4,5-c]quinolin-1-yl)pyridin-2-yl)propanenitrile], in assay [6], the “Akt, S6 and 4EBP1 phosphorylation (Western blot)” value is “inhibit Akt, S6 and 4EBP1 phosphorylation”. Also, the IC50 in assay [7] came to 0.08 µM; in [8], 0.38 µM.
For `CC(C)(C#N)c1ccc(-n2c(=O)n(CC#N)c3cnc4ccc(-c5cnc6ccccc6c5)cc4c32)cn1` [Example 17, 2-(5-(3-(Cyanomethyl)-2-oxo-8-(quinolin-3-yl)-2,3-dihydro-1H-imidazo[4,5-c]quinolin-1-yl)pyridin-2-yl)-2-methylpropanenitrile], the IC50 stood at 0.085 µM in assay [9]; 0.25 µM in assay [10]; 0.23 µM in [11]; 0.45 µM in assay [12]; 0.24 µM in assay [13]; 0.065 µM in [7]. For the same compound, the IC50 in assay [14] came out at 0.17 µM; in [15], 0.37 µM; in assay [8], 0.17 µM.
In the case of `Cn1c(=O)n(-c2ccc(C#N)nc2)c2c3cc(-c4cccnc4)ccc3ncc21` [Example 49, 5-(3-Methyl-2-oxo-8-(pyridin-3-yl)-2,3-dihydro-1H-imidazo[4,5-c]quinolin-1-yl)picolinonitrile], the IC50 in assay [9] is 0.04 µM; in assay [10] it was 0.03 µM; in assay [11] it was 0.035 µM; in assay [12] it was 0.065 µM; in [13] it was 0.025 µM; in assay [7], 0.009 µM. The figures for the IC50 in assay [14], in assay [15] and in [8] were 0.016 µM, 0.3 µM and 0.017 µM, respectively.
As for `Cn1c(=O)n(-c2ccc(C(F)(F)F)nc2)c2c3cc(-c4cnc5ccccc5c4)ccc3ncc21` [Example 54, 3-Methyl-8-(quinolin-3-yl)-1-(6-(trifluoromethyl)pyridin-3-yl)-1H-imidazo[4,5-c]quinolin-2(3H)-one], the IC50 in [9] stood at 0.78 µM; in [10], 0.8 µM; in [11], 0.95 µM; in assay [12], 1.2 µM; in assay [13], 0.55 µM; in assay [7], 0.16 µM. In addition, the IC50 is 0.55 µM in [14], 1 µM in assay [15] and 0.55 µM in assay [8].
Regarding `Cn1c(=O)n(-c2ccc(C(F)(F)F)nc2Cl)c2c3cc(-c4cnc(N)c(C(F)(F)F)c4)ccc3ncc21` [Example 59, 8-(6-Amino-5-(trifluoromethyl)pyridin-3-yl)-1-(2-chloro-6-(trifluoromethyl)pyridin-3-yl)-3-methyl-1H-imidazo[4,5-c]quinolin-2(3H)-one], the IC50 in assay [9] was under 0.01 µM; in assay [10] it was 0.013 µM; in [11], 0.017 µM; in assay [12], 0.07 µM; in assay [13], 0.042 µM; in assay [7], under 0.01 µM. The 50% inhibitory concentration (IC50) in assay [14] was under 0.01 µM; in assay [15] it was 0.04 µM; in assay [8] it was 0.018 µM. In addition, in assay [6], the “Akt, S6 and 4EBP1 phosphorylation (Western blot)” value was “inhibit Akt, S6 and 4EBP1 phosphorylation”.
On to `Cn1c(=O)n(-c2ccc(Cl)nc2C(F)(F)F)c2c3cc(-c4cccnc4)ccc3ncc21` [Example 63, 1-(6-Chloro-2-(trifluoromethyl)pyridin-3-yl)-3-methyl-8-(pyridin-3-yl)-1H-imidazo[4,5-c]quinolin-2 (3H)-one], for which the IC50 in [10] was 4 µM; in assay [4] (Homo sapiens), 0.224 µM; in [15] it was 5.6 µM. Besides, the inhibition (commonly the share of the control response that was lost under treatment) at 1 µM amounted to 88% in assay [7] (A2780, 1 μM, 48 hours, read-out: % Inhibition at 1 μM, C1a) and 53% in assay [8] (PC3, 1 μM, 48 hours, read-out: % Inhibition at 1 μM, C2a).
As for `Cn1c(=O)n(-c2ccc3ncccc3c2)c2c3cc(-c4cnc(N)c(C(F)(F)F)c4)ccc3ncc21` [Example 67, 8-(6-Amino-5-(trifluoromethyl)pyridin-3-yl)-3-methyl-1-(quinolin-6-yl)-1H-imidazo[4,5-c]quinolin-2 (3H)-one], the 50% inhibitory concentration (IC50) amounted to 0.0085 µM in assay [9]; 0.02 µM in [10]; 0.025 µM in assay [11]; 0.05 µM in assay [12]; 0.035 µM in assay [13]; 0.006 µM in assay [7]. Also, the IC50 was determined as 0.012 µM in assay [14], 0.011 µM in assay [15] and 0.015 µM in assay [8].
With `Cn1c(=O)n(CCN2CCOCC2)c2c3cc(-c4cccnc4)ccc3ncc21` [Example 68, 3-Methyl-1-(2-morpholinoethyl)-8-(pyridin-3-yl)-1H-imidazo[4,5-c]quinolin-2(3H)-one], the IC50 in [9] stood at 2.4 µM; in [10], 3 µM; in assay [11], 4.6 µM; in assay [12], 7 µM; in assay [13] it was 4.6 µM; in [7] it was 1.4 µM. Also, the values for the IC50 in [14], in assay [15] and in assay [8] were 2.3 µM, over 10 µM and 2.4 µM, respectively.
